Values quoted from earlier work, collected in patent US20230364032A1, “USE OF 2-HOBA TO TREAT ATHEROSCLEROSIS” (Vanderbilt University, priority 2020, published 2023).
Where two headings read alike, the source gives them in different places.

How the values were obtained:
[1] = system: Apoe−/− mice; details: cited from earlier work; for effect on atherosclerotic lesions: streptozotocin-treated Apoe−/− mice
[2] = target: T1, IL-1β (Homo sapiens, UniProt P01584); details: humans with prior MI and elevated hsCRP; cited from earlier work
T1 construct: host or cells: patients of a clinical trial (endogenous protein)

## Cc1c(C)c2c(c(C)c1O)CC[C@@](C)(CCC[C@H](C)CCC[C@H](C)CCCC(C)C)O2 [alpha tocopherol]
[1]; Apoe−/− mice
  effect on atherosclerosis: reduces
  effect on urine F2-IsoP levels: reduces

## canakinumab: an IL-1β neutralizing monoclonal antibody
[2]
  cardiovascular event rates: reduce cardiovascular event rates

## Cc1ncc(CO)c(CN)c1O [pyridoxamine]
[1]
  effect on atherosclerotic lesions: reduce atherosclerotic lesions

## N=C(N)NN [aminoguanidine]
[1]
  effect on atherosclerotic lesions: reduce atherosclerotic lesions

## NCCC(=O)N[C@@H](Cc1cnc[nH]1)C(=O)O [carnosine]
[1]; Apoe−/− mice or streptozotocin-treated Apoe−/− mice
  effect on atherosclerosis: reduce atherosclerosis
